The values below are quoted from earlier work in patent US20240264159A1 (priority 2021, published 2024).

This series deals with SARS-CoV-2. Conditions: Bewley et al., 2021; cited from earlier work.

Consider heparin, for which the “inhibition of SARS-CoV-2 entry into cells” value is listed as “inhibit SARS-CoV-2 entry into cells”.
